Reference: patent EP4385980A1, “INDAZOLES AS INHIBITORS OF NAV1.8” (Grünenthal GmbH, priority 2022, dated 2024)

biological target: T1, human NaV1.8 (Homo sapiens, UniProt Q9Y5Y9); test: Electrophysiology: voltage-clamp recordings (whole-cell automated patch clamp, Qube384); assay type: cell-based; conditions: HEK-NaV1.8 with b3 recombinant cell line, ambient room temperature, read-out: Potency category (human NaV1.8 IC50)
T1 construct: expressed in transfected cells; host or cells: HEK
Procedure: The following NaV1.8 recombinant cell line was used for recordings: HEK-NaV1.8 (NM_006514.1) with b3 (NM_018400.3).
Sodium currents were measured using the patch clamp technique in the whole-cell configuration using the Qube384 (Sophion A/S, Copenhagen, Denmark) automated voltage clamp platform. "Multi hole" plates were used for the cell line expressing NaV1.8 while "single hole" plates were used for the recombinant cell lines expressing the other subtypes. Appropriate filters (for minimum seal resistance and minimum current size) and series resistance compensation (for high quality sodium channel recordings) were applied. Data was collected at ambient room temperature.
The recording […] solution contained (in mM): NaCl 145 mM, KCl 4 mM, CaCl2 2 mM, MgCl2 1 mM, HEPES 10 mM, Glucose 10 mM, pH 7.4 (NaOH). The […] recording solution contained (in mM): CsF 120 mM, CsCl 20 mM, NaCl 10 mM, EGTA 10 mM, HEPES 10 mM, pH 7.2 (CsOH). Currents were recorded at 25 kHz sampling frequency and filtered at 5 kHz. Series resistance compensation was applied at 65%.
Vehicle (VEH) is the control condition where cells are exposed to 0.3 % DMSO without compound. All runs include VEH controls being exposed to the same voltage protocols to assess non-compound related phenomena such as run down and then used to isolate compound dependent effects on currents.
To check for state-dependence inhibition, the following voltage-sequence was applied every 20 seconds: From a resting membrane potential of-120 mV, the first test pulse (P1; 20 ms to -10 mV) was applied to check for channels in the Resting State followed by a brief recovery (20 ms to -120 mV), then holding the membrane voltage to V1/2 (4 seconds at voltage to obtain half the channel at Rest and half Inactivated) with a subsequent second test pulse (P2; 20 ms to -10 mV) to check for channels in the Inactivated State, followed by another brief recovery (20 ms to -120 mV) and a final third test pulse (P3; 20 ms to -10 mV) to check for recovered channels.
To check for frequency-dependent inhibition, a 10 Hz protocol and a 20 Hz protocol were applied; namely,
From a resting membrane potential of -120 mV, 40-pulses (10 ms to -10 mV) was applied at 10 Hz (at 100 ms between pulses) and then at 20 Hz (at 50 ms between pulses).
Each parameter was recorded (P1, P2, P3, P40 from 10Hz and P40 from 20Hz) during a control period (lasting ~ 5 minutes) when establishing the baseline and during compound period (lasting ~ 12 minutes) when test compound (or vehicle) was applied. For each parameter, the value at the end of the compound period was normalized to the vehicle baseline; as follows Normalized Inhibition (NormCPD) = (CPD Valueend CPD period)/(VEH Valueend Control Period) [formula]
To adjust for any variance in the Na^+ current signal during the compound period (owing to cumulative inactivation independent of compound or shifts in biophysics over time), a dedicated segment of the recording wells in each 384 plate were dedicated to having only vehicle exposure. These vehicle-only recordings were used to correct for any apparent "run-up" or "run-down" in the experiment. Normalized Inhibition (NormVEH) = (VEH Valueend CPD period)/(VEH Valueend Control Period) [formula]
The adjusted inhibition was calculated as follows: % Inhibitioncorrected = 100 × (NormCPD −NormVEH)/(100−NormVEH) [formula]
Percent inhibition was determined and IC50 values were calculated using a 4 parameter logistic model within XLFit Software (IDBS, Boston MA): % Inhibitioncorrected = A + ((B−A))/((1 + (((x)/(C)))^D) [formula] where A and B are the maximal and minimum inhibition respectively, C is the IC50 concentration and D is the (Hill) slope.

T1 sequence (Q9Y5Y9 whole entry): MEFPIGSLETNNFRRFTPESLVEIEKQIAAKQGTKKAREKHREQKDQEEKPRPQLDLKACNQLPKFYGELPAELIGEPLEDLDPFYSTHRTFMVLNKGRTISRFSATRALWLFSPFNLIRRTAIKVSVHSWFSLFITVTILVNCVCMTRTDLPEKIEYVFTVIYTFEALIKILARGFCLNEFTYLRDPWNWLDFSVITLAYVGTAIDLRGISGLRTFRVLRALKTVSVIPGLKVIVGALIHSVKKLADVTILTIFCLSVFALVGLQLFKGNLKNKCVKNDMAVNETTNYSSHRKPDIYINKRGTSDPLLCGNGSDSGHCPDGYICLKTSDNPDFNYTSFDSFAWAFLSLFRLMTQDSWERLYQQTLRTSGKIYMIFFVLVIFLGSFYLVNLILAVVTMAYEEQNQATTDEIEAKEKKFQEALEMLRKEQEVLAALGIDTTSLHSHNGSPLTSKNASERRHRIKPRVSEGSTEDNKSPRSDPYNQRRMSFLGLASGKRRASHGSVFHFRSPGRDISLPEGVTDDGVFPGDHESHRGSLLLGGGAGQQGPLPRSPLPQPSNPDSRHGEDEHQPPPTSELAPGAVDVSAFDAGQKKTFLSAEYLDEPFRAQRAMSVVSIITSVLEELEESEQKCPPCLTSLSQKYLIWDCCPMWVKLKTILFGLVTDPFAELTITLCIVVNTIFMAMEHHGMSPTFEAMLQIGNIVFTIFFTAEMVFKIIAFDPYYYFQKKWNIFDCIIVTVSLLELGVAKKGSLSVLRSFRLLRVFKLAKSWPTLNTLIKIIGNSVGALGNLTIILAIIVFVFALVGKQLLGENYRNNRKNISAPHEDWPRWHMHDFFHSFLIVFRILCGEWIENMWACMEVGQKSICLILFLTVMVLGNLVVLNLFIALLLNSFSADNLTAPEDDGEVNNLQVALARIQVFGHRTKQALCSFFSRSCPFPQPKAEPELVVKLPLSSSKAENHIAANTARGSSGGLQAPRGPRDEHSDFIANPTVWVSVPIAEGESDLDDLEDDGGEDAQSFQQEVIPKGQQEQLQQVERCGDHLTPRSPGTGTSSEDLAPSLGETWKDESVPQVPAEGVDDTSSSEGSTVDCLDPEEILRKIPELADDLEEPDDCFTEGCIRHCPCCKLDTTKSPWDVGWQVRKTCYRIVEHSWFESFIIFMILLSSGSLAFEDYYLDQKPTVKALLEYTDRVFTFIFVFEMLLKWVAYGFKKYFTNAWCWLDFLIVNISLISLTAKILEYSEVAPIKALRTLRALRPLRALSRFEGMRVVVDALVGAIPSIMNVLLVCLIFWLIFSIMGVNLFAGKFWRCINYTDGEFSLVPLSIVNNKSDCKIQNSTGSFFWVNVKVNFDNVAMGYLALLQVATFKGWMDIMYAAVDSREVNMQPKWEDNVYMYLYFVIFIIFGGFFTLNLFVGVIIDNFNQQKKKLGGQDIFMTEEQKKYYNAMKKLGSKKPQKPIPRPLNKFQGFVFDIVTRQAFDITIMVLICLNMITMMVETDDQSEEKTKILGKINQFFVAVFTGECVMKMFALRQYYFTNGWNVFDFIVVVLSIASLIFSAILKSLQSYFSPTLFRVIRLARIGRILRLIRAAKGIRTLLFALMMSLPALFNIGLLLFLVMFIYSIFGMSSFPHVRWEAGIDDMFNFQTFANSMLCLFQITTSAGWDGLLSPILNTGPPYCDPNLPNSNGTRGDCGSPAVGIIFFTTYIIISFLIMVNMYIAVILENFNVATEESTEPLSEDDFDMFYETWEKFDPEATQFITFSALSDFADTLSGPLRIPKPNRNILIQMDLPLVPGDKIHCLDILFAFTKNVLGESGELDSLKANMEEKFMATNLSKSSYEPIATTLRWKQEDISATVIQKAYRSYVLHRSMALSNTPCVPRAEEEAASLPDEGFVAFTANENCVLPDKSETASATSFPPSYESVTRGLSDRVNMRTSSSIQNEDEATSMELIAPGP
T1 sequence (Q9NY72 23-215 partner): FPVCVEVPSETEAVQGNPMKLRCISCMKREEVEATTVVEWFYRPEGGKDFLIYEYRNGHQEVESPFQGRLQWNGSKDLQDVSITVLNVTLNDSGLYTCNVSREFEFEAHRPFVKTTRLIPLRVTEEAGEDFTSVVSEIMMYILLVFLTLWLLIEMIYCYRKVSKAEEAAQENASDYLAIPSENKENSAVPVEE

SMILES	IC50 [nM]
O=C(Nc1ccnc(O)c1)c1c2ccccc2nn1CC1CCCC1 [SC-73, 2-(cyclopentylmethyl)-N-(2-hydroxypyridin-4-yl)indazole-3-carboxamide]	100 to 1000
C[C@H](C1CCCCC1)n1nc2ccccc2c1C(=O)Nc1cccc(S(C)(=O)=O)c1 (single isomer, unassigned) [SC-74b]	1000 to 10000
O=C(Nc1ccnc(O)c1)c1c2cccc(F)c2nn1CC1CCCCC1 [SC-20, 2-(cyclohexylmethyl)-7-fluoro-N-(2-hydroxypyridin-4-yl)indazole-3-carboxamide]	100 to 1000
Cc1ccc2nn(CC3CCCCC3)c(C(=O)Nc3cc[nH]c(=O)c3)c2c1 [SC-48, 2-(cyclohexylmethyl)-5-methyl-N-(2-oxo-1,2-dihydropyridin-4-yl)-2H-indazole-3-carboxamide]	1000 to 10000
NC(=O)c1cc(NC(=O)c2c3ccccc3nn2CC2CCOCC2)ccc1F [SC-21, N-(3-Carbamoyl-4-fluorophenyl)-2-((tetrahydro-2H-pyran-4-yl)methyl)-2H-indazole-3-carboxamide]	1000 to 10000
NS(=O)(=O)c1cccc(NC(=O)c2c3ccccc3nn2CC2CCOCC2)c1 [SC-15, N-(3-sulfamoylphenyl)-2-((tetrahydro-2H-pyran-4-yl)methyl)-2H-indazole-3-carboxamide]	100 to 1000
CS(=O)(=O)c1cccc(NC(=O)c2c3ccccc3nn2CC2CCCC2)c1 [SC-67, 2-(cyclopentylmethyl)-7V-(3-methylsulfonylphenyl)indazole-3-carboxamide]	100 to 1000
C[S+]([O-])c1cccc(NC(=O)c2c3ccc(F)cc3nn2CC2CCCCC2)c1 (stereo not shown) [SC-19, 2-(cyclohexylmethyl)-6-fluoro-N-(3-(methylsulfinyl)phenyl)-2H-indazole-3-carboxamide]	100 to 1000
CS(=O)(=O)n1cc(NC(=O)c2c3ccccc3nn2CC2CCCCC2)cn1 [SC-36, 2-(cyclohexylmethyl)-N-(1-(methylsulfonyl)-1H-pyrazol-4-yl)-2H-indazole-3-carboxamide]	100 to 1000
O=C(Nc1ccnc(O)c1)c1c2ccc(F)cc2nn1CC1CCCCO1 (stereo not shown) [SC-71, 6-fluoro-N-(2-hydroxypyridin-4-yl)-2-[[oxan-2-yl]methyl]indazole-3-carboxamide]	1000 to 10000
O=C(Nc1ccnc(O)c1)c1c2ccccc2nn1CC1CCC(F)(F)CC1 [SC-24, 2-[(4,4-difluorocyclohexyl)methyl]-N-(2-hydroxypyridin-4-yl)indazole-3-carboxamide]	1000 to 10000
NC(=O)c1cc(NC(=O)c2c3ccccc3nn2CC2CCC(F)(F)CC2)ccc1F [SC-25, N-(3-carbamoyl-4-fluorophenyl)-2-[(4,4-difluorocyclohexyl)methyl]indazole-3-carboxamide]	100 to 1000
NS(=O)(=O)c1cc(NC(=O)c2c3ccc(F)cc3nn2CC2CCCCC2)ccn1 [SC-87, 2-(cyclohexylmethyl)-6-fluoro-N-(2-sulfamoylpyridin-4-yl)-2H-indazole-3-carboxamide]	≤ 100
Cc1cccc2c(C(=O)Nc3cccc(S(N)(=O)=O)c3)n(CC3CCC(F)(F)C3)nc12 (stereo not shown) [SC-80, 2-((3,3-difluorocyclopentyl)methyl)-7-methyl-N-(3-sulfamoylphenyl)-2H-indazole-3-carboxamide]	≤ 100
Cc1cccc2c(C(=O)Nc3cccc(S(C)(=O)=O)c3)n(CC3CCCCC3)nc12 [SC-45, 2-(cyclohexylmethyl)-7-methyl-N-(3-methylsulfonylphenyl)indazole-3-carboxamide]	≤ 100

Further lines, results first:

IC50 [nM]	SMILES
≤ 100	CS(=O)(=O)c1cccc(NC(=O)c2c3c(F)cccc3nn2CC2CCCCC2)c1 [SC-47, 2-(cyclohexylmethyl)-4-fluoro-N-(3-methylsulfonylphenyl)indazole-3-carboxamide]
≤ 100	NS(=O)(=O)c1cccc(NC(=O)c2c3cccc(F)c3nn2CC2CCCC(F)(F)C2)c1 (stereo not shown) [SC-81, 2-((3,3-difluorocyclohexyl)methyl)-7-fluoro-N-(3-sulfamoylphenyl)-2H-indazole-3-carboxamide]
≤ 100	CS(=O)(=O)c1cccc(NC(=O)c2c3cccc(C(F)(F)F)c3nn2CC2CCCCC2)c1 [SC-44, 2-(cyclohexylmethyl)-N-(3-methylsulfonylphenyl)-7-(trifluoromethyl)indazole-3-carboxamide]
≤ 100	NS(=O)(=O)c1cccc(NC(=O)c2c3ccc(F)cc3nn2CC2CCC(F)(F)CC2)c1 [SC-38, 2-[(4,4-difluorocyclohexyl)methyl]-6-fluoro-N-(3-sulfamoylphenyl)indazole-3-carboxamide]
≤ 100	Cc1cccc2nn(CC3CCCCC3)c(C(=O)Nc3cccc(S(C)(=O)=O)c3)c12 [SC-83, 2-(cyclohexylmethyl)-4-methyl-N-(3-(methylsulfonyl)phenyl)-2H-indazole-3-carboxamide]
≤ 100	Cc1cccc2c(C(=O)Nc3ccnc(S(N)(=O)=O)c3)n(C[C@H]3CCCCO3)nc12 (single isomer, unassigned) [SC-88b]
≤ 100	NC(=O)c1cc(NC(=O)c2c3ccc(F)cc3nn2CC2CCCCC2)ccn1 [SC-86, N-(2-carbamoylpyridin-4-yl)-2-(cyclohexylmethyl)-6-fluoro-2H-indazole-3-carboxamide]
≤ 100	O=C(Nc1ccnc(O)c1)c1c2ccc(F)cc2nn1CC1CCCCC1 [SC-05, 2-(cyclohexylmethyl)-6-fluoro-N-(2-hydroxypyridin-4-yl)indazole-3-carboxamide]
≤ 100	Cc1ccc(Cl)c2c(C(=O)Nc3ccnc(C(N)=O)c3)n(CC3CCC(F)(F)C3)nc12 (single isomer, unassigned) [SC-82a, N-(2-carbamoylpyridin-4-yl)-4-chloro-2-((3,3-difluorocyclopentyl)methyl)-7-methyl-2H-indazole-3-carboxamide]
≤ 100	CS(=O)(=O)c1cccc(NC(=O)c2c3ccc(F)cc3nn2CC2CCCCC2)c1 [SC-11, 2-(cyclohexylmethyl)-6-fluoro-N-(3-methylsulfonylphenyl)indazole-3-carboxamide]
